This assay concerns mechanical allodynia/hyperalgesia in rats with unilateral ligatures of the sciatic nerve. The assay can be described thus: Randall-Selitto test (pressure thresholds for paw withdrawal and vocalization) in rats with unilateral ligatures of the sciatic nerve. In kind it is in vivo. To be noted: two weeks after sciatic nerve ligature, cizolirtine 5 mg/kg i.p., gabapentin 30 mg/kg i.p., or both 5 min apart; for pressure thresholds for triggering vocalization (analgesic effect): Figure 2; for pressure thresholds to trigger paw withdrawal (analgesic effect): ipsilateral right hindpaw, Figure 1. How it is done: Ligatures of the right sciatic nerve were made in pentobarbital (50 mg/kg i.p.)-anesthetized rats according to the classical protocol of Bennett and Xie (1988) which is well known by those skilled in the art. Sham operated animals were subjected to the same surgical procedure except that the nerve was not ligated. Prior to surgery and two weeks afterwards, rats were subjected to the Randall-Selitto test to determine the pressure thresholds for triggering withdrawal of the ipsilateral, right hindpaw and vocalization. Animals were then immediately injected with either cizolirtine (5 mg/kg i.p.), gabapentin (30 mg/kg i.p.) or both drugs. In the latter case, a 5 min interval elapsed between the injection of cizolirtine (1st) and that of gabapentin (2nd). Time 0 on the abscissa (see Figs 1 & 2) corresponded to the second injection. The Randall-Selitto test was then applied for the determination of pressure thresholds at various times up to at least 5 hours thereafter.

For `NCC1(CC(=O)O)CCCCC1` [Gabapentin, 1-(aminomethyl) cyclohexaneacetic acid], the “pressure thresholds for triggering vocalization (analgesic effect)” value is “decrease the threshold to trigger vocalization” and the “pressure thresholds to trigger paw withdrawal (analgesic effect)” value was “decrease the pressure threshold to trigger paw withdrawal”.

Turning to `CN(C)CCOC(c1ccccc1)c1ccnn1C` (racemic) [Cizolirtine, (±)-N,N-dimethyl-2-((1-methyl-1H-pyrazol-5-yl)(phenyl)methoxy)ethanamine], the “pressure thresholds for triggering vocalization (analgesic effect)” value is reported as “decrease the threshold to trigger vocalization” and the “pressure thresholds to trigger paw withdrawal (analgesic effect)” value was “decrease the pressure threshold to trigger paw withdrawal”.
